The structures appear in SMILES notation.

1 compound from PMC8557901 (Microbiology Spectrum, 2021) can be followed below.

In experiment [1] the test system is P. yoelii (GFP-luc strain). Description: In vivo liver-stage assay in mice infected with P. yoelii sporozoites. Set-up: species or system BALB/c mice. How it is done: Five mice per treatment group were used. Experimental groups were treated with 50 and 100 mg/kg of M1 intraperitoneally (i.p.). Untreated infected mice and noninfected mice (infection controls), as well as primaquine-treated (50 mg/kg) mice (control drug), were also included. The drugs were administered on days −1, 0, and +1, and mice were challenged on day zero by retroorbital injection of P. yoelii (GFP-luc strain) sporozoites (10,000 per mouse). In vivo bioluminescence imaging was performed 44 h postinfection on day 2, to assess liver-stage development. When parasites were detected in the liver, treatment was continued until day 5 and in vivo imaging was performed on days 3 and 6, to evaluate a prepatent period for the blood-stage parasites in mice after the sporozoite inoculation. In vivo imaging and blood smears were performed to monitor blood-stage development using methods described previously ([45]). This experiment was performed twice.
IVIS Spectrum (Caliper Life Science, Hanover, MD) was used to capture bioluminescence signals. Prior to analysis, the mice were injected i.p. with D-luciferin (100 mg/kg), anesthetized with isoflurane, and imaged 10 min postinjection. Images were analyzed using the Living Image 3.0 software (Caliper Life Sciences, Hanover, MD).
In order to study the in vivo efficacy of M1 without any hepatic CYP metabolism, we conducted an experiment using 1-aminobenzotriazole (ABT), a nonselective inhibitor of cytochrome P450 enzymes ([34], [35]). ABT was administered to mice i.p. 1 h before each treatment with 50 mg/kg gamhepathiopine for 3 days starting from the day before sporozoite inoculation.

In experiment [2] the test system is P. falciparum F32-ART5 quiescent parasites. The experiment in a line: Quiescent-stage survival assay (QSA). In kind it is cell-based, Plasmodium falciparum. The following applies: artemisinin 3 μM 6 h then artemisinin + M1 2.5 μM 24 h versus artemisinin alone; 6-day threshold = active. The method, then:
The Plasmodium falciparum artemisinin-resistant strain F32-ART5 and its twin artemisinin-sensitive line F32-TEM ([30], [31]) were cultivated at 37°C with 5% CO2 in human red blood cells (EFS [French Blood Bank]) diluted to 2% hematocrit in RPMI 1640 medium supplemented with 5% human serum (EFS) as previously reported ([47]).
Chemosensitivity evaluation of artemisinin-resistant parasites at the quiescent stage was performed on the F32-ART5 strain using the quiescent-stage survival assay (QSA) ([33]). D-Sorbitol-synchronized ring-stage parasites at 3% parasitemia (2% hematocrit) were first exposed to 3 μM artemisinin for 6 h to induce quiescence of artemisinin-resistant parasites. Then, quiescent parasites were exposed or not (as a control condition) to 2.5 μM M1 for 24 h. After drug exposure, parasite cultures were washed with RPMI 1640 medium and replaced in normal drug-free culture conditions. The time to parasite recrudescence was determined as the time required to reach initial parasitemia. […] In each experiment, results obtained with the condition “artemisinin 3 μM 6 h/artemisinin 3 μM 24 h” were compared to those obtained with the condition “artemisinin 3 μM 6 h/(artemisinin 3 μM + M1 2.5 μM) 24 h” in order to determine the delay in recrudescence time. […] Each experiment was carried out three times independently, and data statistically analyzed. […]

Experiment [3] deals with P. falciparum strain NF54 gametocytes. Description: In vitro gametocyte induction and development assays. Type of experiment: cell-based, Plasmodium falciparum. The method, then:
To produce gametocytes, P. falciparum strain NF54 was cultured in vitro as described by Trager and Jensen ([46]) with minor modifications. Briefly, parasites were maintained in human type O-positive red blood cells (RBC) at 5% hematocrit (HCT) in RPMI 1640 medium supplemented with 10% heat-inactivated human serum, 10 mM hypoxanthine, 20 μg/ml gentamicin, The cultures were maintained at 37°C in a standard gas mixture of 5% O2, 5% CO2, 90% N2. Synchronous production of gametocytes was achieved as previously described ([47]). Briefly, asexual parasite cultures were synchronized by purifying schizonts with MACS cell separation columns (Miltenyi Biotec) and using them to reinvade erythrocytes. When parasitemia reached 10 to 15% rings, culture medium was supplemented with 50 mM N-acetylglucosamine (NAG; Sigma-Aldrich) for 5 days in order to clear residual asexual parasites and obtain a virtually pure gametocyte culture.
To assess the effect of gamhepathiopine on the induction of gametocytes, M1 (10 μM) was added at the same moment with NAG. For gametocyte development, gamhepathiopine was added 2 days after the addition of NAG. Medium replacement was performed every day. All cultures were prepared in parallel with controls corresponding to cultures that were treated with 0.1% DMSO. The percentages of each stage of gametocytes in cultures were assessed by microscopy of Giemsa-stained thin blood smears.
Figure S2. Protocol of in vitro gametocytocidal activity assays (NAG = N-acetylglucosamine). Gametocytes stages: I, II, III, IV and V. In blue: M1 effect on gametocyte induction: M1 (10 µM) added at D0 on asexual stage before induction with NAG (control= NAG+ DMSO). In green: M1 effect on gametocyte development: M1 (10 µM) added at D3 after induction (Control= DMSO). In red: M1 effect on exflagellation of mature male gametocytes on D10 (Control DMSO)

Experiment [4] relates to P. yoelii in mice and Anopheles stephensi. The experiment in a line: In vivo transmission-blocking mosquito feeding assay. As to conditions: for No. of mosquitoes infected/total no. of mosquitoes (%): untreated 82.8; for No. of oocysts per mosquito: untreated 106; for Mean % parasitemia ± SD: day 4 p.i. in mice prior to mosquito feeding, untreated 0.97 ± 0.17; for Mean % gametocytemia ± SD: day 4 p.i. in mice, untreated 0.05 ± 0.004. How it is done: Experimental mice were infected by i.p. inoculations of 10^7 erythrocytes parasitized with P. yoelii GOMO 15 to test the effect of M1 following two different protocols of drug treatment. Infected mice were randomly allocated into 6 groups (5 mice per group) corresponding to the 3 conditions (control [solvent], M1 50 mg/kg, and PQ 50 mg/kg) in both drug administration protocols. For the first protocol, mice were treated daily from day zero to day 3, while for the second protocol, treatment was administered only once, 4 days after the infection and 2 h before mosquito feeding ([37]). At day 3 p.i., the presence and maturity of gametocytes was checked by microscopic examination of Giemsa-stained thin blood films and live-blood observation to assess microgamete exflagellation density. Mice were then anesthetized and placed according to the treatment on the top of individual cages containing 100 glucose-starved Anopheles stephensi female mosquitoes, which were allowed to feed for 1 h. Unfed mosquitoes were removed from the cages. Seven days after the infectious blood meal, 30 mosquitoes were dissected and their midguts examined using a phase-contrast microscope (400×) to assess the presence of oocysts. Two weeks after the blood meal, the salivary glands of 30 mosquitos were dissected to estimate the average number of sporozoites per mosquito in each group.

Setting [5] is: 50 mg/kg i.p. every day D0 to D3.
Setting [6] is: 50 mg/kg i.p. on day 3, 2 h before feeding.

`Cc1ccc(-c2cc3nc(NC(C)(C)C)[nH]c(=O)c3s2)cc1` [Metabolite M1, 2-(tert-Butylamino)-6-(p-tolyl)thieno[3,2-d]pyrimidin-4(3H)-one]: in experiment [1] (50 mg/kg i.p., 44 h postinfection, bioluminescence), the “development of liver-stage parasites in vivo at day 2” value was “did not prevent the development of liver-stage parasites”. In addition, the “blood-stage parasitemia after sporozoite infection” value in experiment [1] (50 mg/kg, blood smears days 3 and 6) is listed as “reduced the burden of blood-stage parasites”. The “in vivo activity against the hepatic stages with ABT cotreatment” value in experiment [1] (M1 50 mg/kg with 1-aminobenzotriazole 50 mg/kg i.p.) was “improved”. The “median delay in recrudescence time” value in experiment [2] was 6 days. Moreover, the “stage III gametocytes mean value” in experiment [3] (10 μM added after induction, day 6 postinduction, control 1.29) amounted to 0.48. The “stage V gametocytes mean value” in experiment [3] (10 μM added after induction, day 10 postinduction, control 0.70) is 0.26. In addition, the “reduction of the conversion rate of asexual parasites into gametocytes” value in experiment [3] (10 μM added at D0 with NAG, renewed every day) came out at 87.8%. Besides, the “reduction in parasitemia before mosquito feeding” value in experiment [4] (50 mg/kg during D0 to D3, day 4) stood at 50%. In addition, in experiment [4] (setting [5]), the “No. of mosquitoes infected/total no. of mosquitoes (%)” value was 25/35 (71.4) %, the “No. of oocysts per mosquito” value is given as 32, the “Mean % parasitemia ± SD” value was found to be 0.47 ± 0.24% and the “Mean % gametocytemia ± SD” value turned out to be 0.04 ± 0.009%. Besides, in experiment [4] (setting [6]), the “No. of mosquitoes infected/total no. of mosquitoes (%)” value is given as 13/35 (37.1) %, the “No. of oocysts per mosquito” value amounted to 1, the “Mean % parasitemia ± SD” value came out at 0.99 ± 0.34% and the “Mean % gametocytemia ± SD” value came out at 0.04 ± 0.01%.
